# From US11912716B2 (priority 2018, dated 2024)
# How the values were obtained:
# [1] = test system: morphine-induced conditioned place preference behavior in rats; experiment: morphine-induced conditioned place preference behavior, single oral administration before test (Example 12); format: in vivo, SD rats; conditions: 70 mg/kg single oral dose 60 minutes before test, morphine 10 mg/kg s.c. for four days
# [2] = test system: formation of conditioned place preference induced by morphine in rats; experiment: formation of conditioned place preference induced by morphine, concomitant administration (Example 13); format: in vivo, SD rats; conditions: 70 mg/kg oral 30 minutes before each morphine injection (10 mg/kg s.c.), four consecutive days
# morphine-dependent mice = experiment: morphine-induced physical dependence, withdrawal jumping (Example 15); format: in vivo, Kunming mice; conditions: 1 g/kg, 3 hours before naloxone
# [3] = test system: morphine-dependent animals; experiment: naloxone-precipitated morphine-withdrawal jumping (Example 10); format: in vivo, Kunming mice
# SD rats = experiment: addictive potential: induction of conditioned place preference (Example 14); conditions: for CPP SCORE: morphine 10 mg/kg s.c. daily for four consecutive days, hydrochloride
# [4] = 0.125 g/kg intragastric, 1 hour after administration
# [5] = 0.25 g/kg intragastric, 1 hour after administration
# [6] = 0.5 g/kg intragastric, 1 hour after administration
# [7] = 0.5 g/kg intragastric, 3 hours after administration
smiles,measurement,setting,value
"CC(=O)O[C@H]1[C@H](OC(C)=O)[C@H]([C@@](C)(O)CC[C@@H]2OC(C)(C)[C@H]3CC[C@]2(C)O3)[C@@]2(C)CC[C@@H]3OC(C)(C)[C@H](OC(C)=O)CC[C@@]3(C)[C@H]12 [3,12,13-triacetyl limaxol A, (3R,5aS,7aS,8R,9R,10R,10aR,10bS)-dodecahydro-8-((S)-2-hydroxy-4-((1S,2S,5R)-1,4,4-trimethyl-3,8-dioxa-bicyclo[3.2.1]octan-2-yl)butan-2-yl)-4,4,7a,10b-tetramethyl-1H-indeno[5,4-b]oxepine-3,9,10-triol triacetate]",CPP SCORE,[1]; listed as Triacetyl limaxol A,318.5 ± 90.9 n = 7 s
same,CPP SCORE,[1]; listed as triacetyl limaxol A,318.5 ± 90.9 s
same,CPP SCORE,[2]; listed as Triacetyl limaxol A,223.8 ± 34.0 n = 6 s
same,CPP SCORE,[2]; listed as triacetyl limaxol A,318.5 ± 90.9 s
same,Inhibition of morphine-withdrawal jumping,morphine-dependent mice,43.13%
same,Jumping times (Mean ± SEM),morphine-dependent mice,21.7 ± 6.9
same,% Inhibition of morphine-withdrawal jumping,[3]; [4],3.0 ± 12.2%
same,Jumping times (Mean ± SEM),[3]; [4],33.5 ± 4.1
same,% Inhibition of morphine-withdrawal jumping,[3]; [5],21.1 ± 28.2%
same,Jumping times (Mean ± SEM),[3]; [5],27.5 ± 9.4
same,% Inhibition of morphine-withdrawal jumping,[3]; [6],48.2 ± 7.5%
same,Jumping times (Mean ± SEM),[3]; [6],18.5 ± 2.4
same,% Inhibition of morphine-withdrawal jumping,[3]; [7],45.0 ± 17.0%
same,Jumping times (Mean ± SEM),[3]; [7],16.7 ± 4.9
"CC(=O)O[C@H]1[C@H](OC(C)=O)[C@H]([C@@](C)(O)CC[C@]2(C)OC(C)(C)[C@H]3CC[C@]2(C)O3)[C@@]2(C)CC[C@@H]3OC(C)(C)[C@H](O)CC[C@@]3(C)[C@H]12 [limaxol A, reference compound]",Inhibition of morphine-withdrawal jumping,morphine-dependent mice,21.26%
same,Jumping times (Mean ± SEM),morphine-dependent mice,30.0 ± 9.7
"CCC(=O)C(CC(C)N(C)C)(c1ccccc1)c1ccccc1 (stereo not drawn) [methadone, reference compound]",Jumping times (Mean ± SEM),"[3]; methadone 20 mg/kg intragastric, 1 hour before naloxone, jumpings within 30 minutes",33.8 ± 3.3
same,withdrawal jumping symptoms versus morphine model group (in words),"[3]; methadone 20 mg/kg, 1 hour after administration",significantly reduced
"CN1CC[C@]23c4c5ccc(O)c4O[C@H]2[C@@H](O)C=C[C@H]3[C@H]1C5.Cl [morphine, morphine hydrochloride]",induction of conditioned place preference (in words),SD rats; morphine 10 mg/kg s.c.,induced conditioned place preference behavior
same,CPP SCORE,SD rats,208.3 ± 16.2 s
same,CPP SCORE,SD rats; listed as Morphine,208.3 ± 16.2 n = 10 s
